Activity calls are given as the source filed them. The rule behind the calls is not given here.
Target: G-protein coupled receptor 151 (Homo sapiens) (UniProt Q8TDV0)
Assay: GPR151 activator potency, dose response, cell-based (AID 1508610)
Conditions: cell-based GPR151 activation reporter

G-protein coupled receptor 151 (Homo sapiens), sequence (Q8TDV0 whole entry, looked up): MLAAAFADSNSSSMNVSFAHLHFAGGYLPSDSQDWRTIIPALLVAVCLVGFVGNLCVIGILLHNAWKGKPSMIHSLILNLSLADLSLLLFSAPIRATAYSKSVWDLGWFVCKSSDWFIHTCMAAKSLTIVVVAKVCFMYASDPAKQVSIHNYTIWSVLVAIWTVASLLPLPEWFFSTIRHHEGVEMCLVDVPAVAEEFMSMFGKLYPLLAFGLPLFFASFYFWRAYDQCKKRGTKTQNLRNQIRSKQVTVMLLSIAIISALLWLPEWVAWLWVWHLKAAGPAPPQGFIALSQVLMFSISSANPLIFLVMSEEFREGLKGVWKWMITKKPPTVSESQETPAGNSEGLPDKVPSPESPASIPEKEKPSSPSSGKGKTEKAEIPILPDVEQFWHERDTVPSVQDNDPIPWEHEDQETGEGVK

Q: `CN1CCN(c2ccc(-c3ccc(C(=O)NCCOc4ccccc4)s3)cc2)CC1` was tested. Which EC50 did it give?
A: The EC50 was > 27.7 µM (inactive).

Q: With `CCOc1ccc(S(=O)(=O)N(CC(=O)NCCSc2ccccc2)c2ccccc2)cc1` as the compound, how does the EC50 read?
A: Its EC50 is > 26.6 µM (inactive).

Q: With `NP(=O)(Oc1ccc(Cl)cc1)Oc1ccc(Cl)cc1` as the compound, how does the EC50 read?
A: Its EC50 is > 28.2 µM (inactive).

Q: With `Cc1ccc2nc(-c3ccc(O)cc3)[nH]c2c1` as the compound, how does the EC50 read?
A: The EC50 was > 28 µM (inactive).

Q: How did the EC50 turn out when `O=C(COc1ccc(C(=O)NCCc2ccccc2)cc1)Nc1ccccc1F` was run?
A: The EC50 was > 28 µM (inactive).

Q: Which EC50 does the source give for `O=C1CCCCN1c1cccc(NS(=O)(=O)c2cc(F)ccc2F)c1` here?
A: Its EC50 is > 28 µM (inactive).

Q: With `COc1ccccc1OCCCN1C(=O)C(=O)c2cc(Br)cc(C)c21` as the compound, how does the EC50 read?
A: The EC50 was > 28 µM (inactive).

Q: For `Cc1cnc(C)c(NC2CCCCNC2=O)n1` (centres undefined), which EC50 is on record?
A: Its EC50 is > 28 µM (inactive).

Q: Which EC50 does the source give for `C/C(=N\NC(=O)Cn1nnc(-c2ccccc2)n1)c1nonc1C` here?
A: The EC50 was > 28 µM (inactive).

Q: With `COc1cccc2oc(-c3ccccc3)cc(=O)c12` as the compound, how does the EC50 read?
A: Its EC50 is > 28 µM (inactive).

Q: For `O=C(Nc1nc(-c2cc3ccccc3o2)cs1)c1cc2ccccc2oc1=O`, which EC50 is on record?
A: The EC50 was > 24.7 µM (inactive).

Q: For `COc1ccc(-c2ccc(C(=O)Nc3ccc(NC(C)=O)cc3)s2)cn1`, which EC50 is on record?
A: The EC50 was > 28.2 µM (inactive).

Q: With `O=C(NCCO)c1ccc(-c2ccc(N3CCOCC3)nc2)s1` as the compound, how does the EC50 read?
A: Its EC50 is > 27 µM (inactive).

Q: Which EC50 does the source give for `CC(C)Cn1c(-c2nn(C)cc2Cl)n[nH]c1=S` here?
A: The EC50 was > 28 µM (inactive).

Q: For `O=C1NC(=O)C(=Cc2cc(Br)ccc2OCc2ccccc2F)C(=O)N1`, which EC50 is on record?
A: Its EC50 is > 28 µM (inactive).

Q: With `CCC(C)NC(=O)C1=C(C)C(=O)OC12CCCCC2` (centres undefined) as the compound, how does the EC50 read?
A: Its EC50 is > 28 µM (inactive).

Q: How did the EC50 turn out when `CCn1c(SCC(=O)c2ccccc2)nnc1C(C)C` was run?
A: The EC50 was > 28 µM (inactive).

Q: How did the EC50 turn out when `CCCCCCCCCCCCCC/C(C(=O)O)=C(\C)C(=O)O` was run?
A: The EC50 was > 28 µM (inactive).

Q: For `CCOC(=O)c1cc2c(c(CSc3nc4ccccc4c(=O)n3Cc3ccc4c(c3)OCO4)c1)OCOC2`, which EC50 is on record?
A: Its EC50 is > 21.4 µM (inactive).

Q: For `O=C(Nc1noc2ccccc12)c1c(F)cccc1F`, which EC50 is on record?
A: The EC50 was > 28 µM (inactive).

Q: How did the EC50 turn out when `Cc1cc(-n2c(SCC(=O)NCc3ccco3)nc3n[nH]c(C)c3c2=N)ccc1Cl` was run?
A: Its EC50 is > 24.4 µM (inactive).

Q: How did the EC50 turn out when `CCOCCCNC(=O)CSc1ncccc1-c1nc2cc(C)c(C)cc2[nH]1` was run?
A: The EC50 was > 28 µM (inactive).

Q: How did the EC50 turn out when `O=C(Nc1cc(Cl)ccc1Cl)c1ccccc1O` was run?
A: Its EC50 is > 34 µM (inactive).

Q: `Clc1ccccc1/C=C/c1nc(-c2ccccn2)no1` was tested. Which EC50 did it give?
A: Its EC50 is > 28 µM (inactive).

Q: For `COc1ccc(CCNc2ccnc(Nc3ccc(N4CCOCC4)cc3)n2)cc1`, which EC50 is on record?
A: The EC50 was “inactive”.

Q: `Cc1cc(N2CCCCC2)nc2ccc(NC(=O)c3cccc([N+](=O)[O-])c3)cc12` was tested. Which EC50 did it give?
A: The EC50 was > 29.2 µM (inactive).

Q: `CN1CCN(C(=O)c2ccc(-c3nc4ccc(C(=O)NCCOc5ccccc5)cc4s3)cc2)CC1` was tested. Which EC50 did it give?
A: The EC50 was > 28.1 µM (inactive).

Q: For `Cn1c(=O)c2c(nc(NCCO)n2Cc2ccccc2F)n(C)c1=O`, which EC50 is on record?
A: Its EC50 is > 34.4 µM (inactive).

Q: `O=C(NCc1ccc(Cl)cc1)C1C2C=CC3(CN(Cc4ccccc4)C(=O)C13)O2` (centres undefined) was tested. Which EC50 did it give?
A: Its EC50 is > 25.1 µM (inactive).

Q: With `CC(C)N1CCN(Cc2ccc(OC3CCCC3)cc2)CC1CCO` (centres undefined) as the compound, how does the EC50 read?
A: The EC50 was 0.00143 µM.

Q: Which EC50 does the source give for `COc1cccc(/C=C(\C#N)c2nc3ccc(C)cc3[nH]2)c1OC` here?
A: The EC50 was > 33.2 µM (inactive).

Q: `Cc1ccc(NC(=O)CN(C)S(=O)(=O)c2ccc(Br)cc2)cc1Cl` was tested. Which EC50 did it give?
A: The EC50 was > 28 µM (inactive).

Q: For `Cc1ccc(CNC(=O)c2c(C)cc(=O)oc2C)cc1`, which EC50 is on record?
A: Its EC50 is > 28 µM (inactive).

Q: With `CCN=C1SC(CC(=O)Nc2sc(C)c(C)c2C(=O)OC)C(=O)N1CC` (centres undefined) as the compound, how does the EC50 read?
A: The EC50 was > 28.2 µM (inactive).

Q: For `Cn1c(/C=C/c2ccccc2)nc2ccccc21`, which EC50 is on record?
A: The EC50 was > 37 µM (inactive).

Q: How did the EC50 turn out when `CC(C)CC(C(=O)Nc1cccc([N+](=O)[O-])c1)N1C(=O)c2ccccc2C1=O` (centres undefined) was run?
A: Its EC50 is > 28 µM (inactive).

Q: How did the EC50 turn out when `O=S(=O)(c1ccc(-c2csc(=Nc3cccc(Cl)c3)n2CCCO)cc1)N1CCCCC1` was run?
A: Its EC50 is > 17.6 µM (inactive).

Q: How did the EC50 turn out when `Cc1ccc(-c2c(Nc3ccc(Cl)cc3)c(=O)c2=O)cc1` was run?
A: Its EC50 is > 28 µM (inactive).

Q: `CCOC(=O)c1sc(NC(=O)c2sccc2C)cc1C` was tested. Which EC50 did it give?
A: Its EC50 is > 29 µM (inactive).

Q: For `O=C(O)CN1CCN(Cc2ccc(Cl)cc2)C1=O`, which EC50 is on record?
A: The EC50 was > 28 µM (inactive).

Q: For `COc1ccc(S(=O)(=O)Nc2ccc(F)c(F)c2)cc1C`, which EC50 is on record?
A: The EC50 was > 28 µM (inactive).

Q: Which EC50 does the source give for `N#Cc1nc2[nH]c(-c3ccccc3)cc(=O)n2c1C#N` here?
A: The EC50 was > 30 µM (inactive).

Q: `CC(C)=CCN1CCN(Cc2sccc2C)CC1CCO` (centres undefined) was tested. Which EC50 did it give?
A: The EC50 was > 28 µM (inactive).

Q: How did the EC50 turn out when `CCC(=O)N1CCN(c2ccc(NC(=O)c3ccco3)cc2)CC1` was run?
A: Its EC50 is > 28 µM (inactive).

Q: For `O=C(c1ccc2c(c1)OCO2)N1CCN(c2ccc(Cl)cc2)CC1`, which EC50 is on record?
A: Its EC50 is > 28 µM (inactive).

Q: With `O=C(Nc1ncc([N+](=O)[O-])s1)c1cccnc1` as the compound, how does the EC50 read?
A: Its EC50 is > 31.4 µM (inactive).

Q: With `N#Cc1cccc(C(=O)NC2CCCC2)c1` as the compound, how does the EC50 read?
A: Its EC50 is > 31.4 µM (inactive).

Q: How did the EC50 turn out when `S=c1nc2c(n[nH]1)c1ccccc1n2CCc1ccccc1` was run?
A: Its EC50 is > 33 µM (inactive).

Q: With `COc1ccccc1N(CC(=O)Nc1ccccc1C(=O)NCC(C)C)S(C)(=O)=O` as the compound, how does the EC50 read?
A: The EC50 was > 28 µM (inactive).

Q: Which EC50 does the source give for `CSc1nc2ccc(NC(=O)Cn3cnc4ccccc4c3=O)cc2s1` here?
A: The EC50 was > 29.3 µM (inactive).

Q: How did the EC50 turn out when `Cc1ccc(/C(=N/NC(=O)Cc2ccccc2)C23CN4CN(CN(C4)C2)C3)cc1` was run?
A: Its EC50 is > 28 µM (inactive).

Q: For `COc1cccc(-c2ccc(=O)n(CC(=O)Nc3ccc(Cl)c(C(F)(F)F)c3)n2)c1`, which EC50 is on record?
A: The EC50 was > 28 µM (inactive).

Q: `Cc1cc2nc(-c3cccnc3SCC(=O)NCc3ccco3)[nH]c2cc1C` was tested. Which EC50 did it give?
A: Its EC50 is > 28 µM (inactive).

Q: `O=C(O)c1cccc(COc2ccc(CO)cc2Cl)c1` was tested. Which EC50 did it give?
A: The EC50 was > 28 µM (inactive).

Q: For `Cn1c(=O)[nH]c2nnc(-c3ccc(F)cc3)nc2c1=O`, which EC50 is on record?
A: Its EC50 is > 28 µM (inactive).

Q: `CCN1/C(=C/c2ccc3cc(C)ccc3[n+]2CC)Sc2ccc(-c3ccccc3)cc21` was tested. Which EC50 did it give?
A: Its EC50 is “inactive”.

Q: With `Cc1nc2nc(SCC(=O)N3CCOCC3)nn2c(C)c1Cc1ccccc1` as the compound, how does the EC50 read?
A: Its EC50 is > 28 µM (inactive).

Q: With `CCCCNc1c(N2CCCC(C(=O)OCC)C2)c(=O)c1=O` (centres undefined) as the compound, how does the EC50 read?
A: Its EC50 is > 28 µM (inactive).

Q: `CCOC(=O)C(=O)N1CCN(c2ccccc2)CC1` was tested. Which EC50 did it give?
A: The EC50 was > 28 µM (inactive).

Q: Which EC50 does the source give for `COCCNCCOc1ccc(C)cc1C` here?
A: The EC50 was > 28 µM (inactive).

Q: `Nc1ncc(Br)cc1S(=O)(=O)N1CCN(C2CCCCC2)CC1` was tested. Which EC50 did it give?
A: Its EC50 is > 28 µM (inactive).

Q: For `O=Cc1cccc(OCc2ccc(C(=O)O)cc2)c1`, which EC50 is on record?
A: Its EC50 is > 28 µM (inactive).

Q: With `COc1ccc(CCNC(=O)c2sc3nc(C)nc(N4CCCCC4)c3c2C)cc1OC` as the compound, how does the EC50 read?
A: The EC50 was > 27.6 µM (inactive).

Q: Which EC50 does the source give for `Cc1nn(Cc2ccc(F)cc2)c(C)c1N` here?
A: The EC50 was > 28 µM (inactive).

Q: `O=C(CCCC(=O)N/N=C/c1cccc([N+](=O)[O-])c1)N/N=C/c1cccc([N+](=O)[O-])c1` was tested. Which EC50 did it give?
A: The EC50 was > 28 µM (inactive).

Q: With `CC(C)c1ccc(N(CC(=O)NCCSc2ccccc2)S(C)(=O)=O)cc1` as the compound, how does the EC50 read?
A: Its EC50 is > 28 µM (inactive).

Q: How did the EC50 turn out when `C#CCN1CCc2cc(OC)c(OC)cc2C1C` (centres undefined) was run?
A: Its EC50 is > 28 µM (inactive).

Q: With `CCOc1ccc(NS(=O)(=O)c2ccc3c(c2)n(C)c(=O)n3C)cc1` as the compound, how does the EC50 read?
A: Its EC50 is > 28 µM (inactive).

Q: With `COc1ccc(-c2ccc(C(=O)Nc3ccccc3)s2)cc1` as the compound, how does the EC50 read?
A: The EC50 was > 27.9 µM (inactive).

Q: Which EC50 does the source give for `O=C1C2C3C=CC(C3)C2C(=O)N1Nc1c(Cl)cc(Cl)cc1Cl` (centres undefined) here?
A: The EC50 was > 28 µM (inactive).

Q: For `C/C(=C\c1ccccc1)C(=O)NCCc1ccccc1`, which EC50 is on record?
A: The EC50 was > 28 µM (inactive).

Q: With `C=CCn1c(C)cc(C2=NNC(=NCC)SC2)c1C` as the compound, how does the EC50 read?
A: Its EC50 is > 28.7 µM (inactive).

Q: How did the EC50 turn out when `CCOC(=O)c1sc(NC(=O)C2CC2)nc1C` was run?
A: The EC50 was > 28.6 µM (inactive).

Q: With `O=C(Nc1nc(-c2ccc(I)cc2)cs1)c1ccc(Cl)s1` as the compound, how does the EC50 read?
A: The EC50 was > 24.9 µM (inactive).

Source: PubChem BioAssay AID1508610 (The Scripps Research Institute Molecular Screening Center, 2020)
